The structures appear in SMILES notation.

This assay concerns the target T1, ARAF (Homo sapiens, UniProt P10398).
T1 construct: ARAF kinase reactions were rigorously the same with the exception that kinase concentration was raised to 3.75 nM (cat. No. 1768-0000-1; Reaction Biology)
T1 sequence (P10398 303-606 limits assumed): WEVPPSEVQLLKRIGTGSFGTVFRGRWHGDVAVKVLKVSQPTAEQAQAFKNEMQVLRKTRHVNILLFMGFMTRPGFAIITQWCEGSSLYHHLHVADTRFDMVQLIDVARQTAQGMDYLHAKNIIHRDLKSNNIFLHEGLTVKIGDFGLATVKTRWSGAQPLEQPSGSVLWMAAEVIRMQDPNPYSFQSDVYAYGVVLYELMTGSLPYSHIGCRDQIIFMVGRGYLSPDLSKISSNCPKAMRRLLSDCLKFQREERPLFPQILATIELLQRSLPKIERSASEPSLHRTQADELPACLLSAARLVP
Briefly: ARAF kinase activity assay (AlphaLISA p-MEK 1/2). Type of assay: biochemical. To be noted: Table A; 10 μM ATP, kinase-dead MEK1 substrate. How it is done:
Compound preparation: solid samples of each substance in 1dram vials were suspended in DMSO (Fisher Scientific) at a stock concentration of 20 mM. Stocks were kept at −20° C. and protected from light. If solubility of the compound at 20 mM appeared to be an issue, the initial concentration of the DMSO stock was changed to 10 mM or 5 mM.
In vitro enzymatic reactions were used for evaluating compounds intrinsic activity against BRAF, CRAF and ARAF. For BRAF and CRAF, 0.375 nM of purified GST-tagged kinases (cat. No. B4062-10UG and cat. No. R1656-10UG respectively from Millipore Sigma) were incubated with 75 nM of kinase-dead MEK1 substrate (cat. No. 40075; BPS Bioscience) in the presence of 10 μM of Ultrapure ATP (cat. No. V9102; Promega; part V915A) with and without the test compound in a buffer containing 50 mM HEPES pH 7.5, 10 mM MgCl2, 1 mM EDTA, 0.01% Brij-35 and 2 mM DTT. Separate reactions were performed with the MEK1 substrate and ATP as a blank control. ARAF kinase reactions were rigorously the same with the exception that kinase concentration was raised to 3.75 nM (cat. No. 1768-0000-1; Reaction Biology).
For compound treatment, 5 μL/well of test substance solution are placed in a 384-well proxyplate (Perkin Elmer) and mixed with 2× concentrated kinase reactions. The dilution series is selected so that nine concentrations cover a range from 100 nM to 0.01 nM. […] The final concentration of DMSO in the assay is set at 0.05%.
ARAF kinase reactions were carried out for a total of 2 hours at 30° C. and then stopped by addition of EDTA at a final concentration of 40 mM. Reactions were then detected using the AlphaLISA® SureFire® Ultra™ p-MEK 1/2 (Ser218/222) (PerkinElmer) kit. Reactions were performed with 5 μL of kinase reaction according to the manufacturer's specifications in 384-well proxyplates (Perkin Elmer) followed by overnight incubation of the AlphaLISA® reactions at room temperature in a humidified chamber. After completion of the detection reactions, the signals were recorded on a Synergy Neo2 plate reader (Biotek) equipped with AlphaLISA® filters. The effect of each compound dilution on the pMEK signal generated by ARAF reactions was expressed in % inhibition and calculated as follows. An internal 100% inhibition control (average of luminescence in kinase reactions comprising kinase dead MEK1 substrate alone) was included in each plate to measure of pMEK background and was subtracted from each data point. The average of DMSO (vehicle) controls (set as 0% inhibition) was also established and used to calculate % inhibition:
IC50 values were obtained by plotting the kinase inhibition values and fitting the dose-activity curves using a log(agonist) versus response—variable slope (four parameters) function using either GraphPadPrism (V7.0) or Dotmatics Screening Ultra platform. Standards included in the ARAF kinase assay were Belvarafenib (MedChem Express cat. No. HY-109080; CAS No. 1446113-23-0), LXH254 (MedChem Express cat. No. HY-112089; CAS No. 1800398-38-2) and BGB283 (cat. No. HY-18957; CAS No. 1446090-79-4).

The IC50 is the midpoint of a concentration-inhibition curve. Turning to `O=C1CCc2c(Oc3ccc4c(c3)[C@@H]3[C@H](O4)[C@H]3c3nc4ccc(C(F)(F)F)cc4[nH]3)ccnc2N1` [BGB283], the IC50 is more than 10 nM.

For `Cc1ccc(NC(=O)c2ccnc(C(F)(F)F)c2)cc1-c1cc(OCCO)nc(N2CCOCC2)c1` [LXH254], the IC50 is more than 10 nM.

(Values after patent US20260137697A1, “THIAZOLO[5,4-D]PYRIMIDINE COMPOUNDS, COMPOSITIONS COMPRISING THEM AND USES THEREOF” (University de Montreal, priority 2022, published 2026).)
